For test [1], the system named is Corn Earworm (CEW) (Helicoverpa zea). As to the kind of experiment: Bioassays on Corn Earworm (CEW), 128-well diet tray assay. Type of test: in vivo. Conditions: 168 h, 50 μg/cm^2 test compound on artificial diet, second instar larvae, 25° C., five to seven days, average of eight wells, read-out: CEW Rating (% mortality). In short, it runs like this: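 Second-instar larvae (one to five per well) placed on artificial diet treated with 50 μg/cm^2 compound in 90:10 acetone-water, dried; eight wells per compound. Held at 25° C, 14:10 light-dark, five to seven days; percent mortality averaged over wells.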

Test [2] relates to Beet Armyworm (BAW) (Spodoptera exigua). As to the kind of experiment: Bioassays on Beet Armyworm (BAW), 128-well diet tray assay. Type of test: in vivo. To be noted: 168 h, 50 μg/cm^2 test compound on artificial diet, second instar larvae, 25° C., five to seven days, average of eight wells, read-out: BAW Rating (% mortality). In short, it runs like this: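 Second-instar larvae (1–5 per well) on artificial diet surface-treated with 50 μg/cm^2 compound applied in 90:10 acetone-water and dried; eight wells per compound. Held 5–7 days at 25° C., 14:10 light-dark. Percent mortality scored per well and averaged over eight wells.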

One may read the mortality as the share of the test organisms that died.

`CSc1ncnn1-c1ccc(/C=C/C(c2cc(Cl)cc(Cl)c2)C(F)(F)F)cc1` (centres unmarked) [DC25]: the mortality at 50 µg/cm2 in test [1] and in test [2] was 0% in each case.

Turning to `O=C(c1ncnn1-c1ccc(/C=C/C(c2cc(Cl)cc(Cl)c2)C(F)(F)F)cc1)C1CC1` (centres unmarked) [DC26], the mortality at 50 µg/cm2 in test [1] and in test [2] was 0% in each case.

For `CS(=O)(=O)c1ncnn1-c1ccc(/C=C/C(c2cc(Cl)cc(Cl)c2)C(F)(F)F)cc1` (centres unmarked) [DC27], the mortality at 50 µg/cm2 in test [1] and in test [2] was 0% throughout.

For `N#Cc1cc(/C=C/C(c2ccc(Cl)c(Cl)c2)C(F)(F)F)ccc1-n1cncn1` (centres unmarked) [DC28], the mortality at 50 µg/cm2 in test [1] and in test [2] was 50 to 100% in each case.

For the compound `N#Cc1cc(/C=C/C(c2cc(Cl)cc(Cl)c2)C(F)(F)F)ccc1-n1cncn1` (centres unmarked) [DC29], the mortality at 50 µg/cm2 in test [1] and in test [2] was 50 to 100% in each case.

For `N#Cc1cc(/C=C/C(c2cc(C(F)(F)F)cc(C(F)(F)F)c2)C(F)(F)F)ccc1-n1cncn1` (centres unmarked) [DC30], the mortality at 50 µg/cm2 in test [1] and in test [2] was 50 to 100% in each case.

As to `N#Cc1cc(/C=C/C(c2cc(Cl)c(Cl)c(Cl)c2)C(F)(F)F)ccc1-n1cncn1` (centres unmarked) [DC31], the mortality at 50 µg/cm2 in test [1] and in test [2] was 50 to 100% in each case.

In the case of `N#Cc1cc(/C=C/C(c2cccc(Cl)c2)C(F)(F)F)ccc1-n1cncn1` (centres unmarked) [DC32], the mortality at 50 µg/cm2 in test [1] and in test [2] was 0% in each case.

Turning to `N#Cc1cc(/C=C/C(c2cc(Cl)cc(C(F)(F)F)c2)C(F)(F)F)ccc1-n1cncn1` (centres unmarked) [DC33], the mortality at 50 µg/cm2 in test [1] and in test [2] was 50 to 100% in each case.

As for `COc1c(Cl)cc(C(/C=C/c2ccc(-n3cncn3)c(C#N)c2)C(F)(F)F)cc1Cl` (centres unmarked) [DC34], the mortality at 50 µg/cm2 in test [1] and in test [2] was 50 to 100% each time.

With `N#Cc1cc(/C=C/C(c2cc(Cl)c(F)c(Cl)c2)C(F)(F)F)ccc1-n1cncn1` (centres unmarked) [DC35], the mortality at 50 µg/cm2 in test [1] and in test [2] was 50 to 100% throughout.

Consider `Cc1ncn(-c2ccc(/C=C/C(c3cc(Cl)cc(Cl)c3)C(F)(F)F)cc2C#N)n1` (centres unmarked) [DC36], for which the mortality at 50 µg/cm2 in test [1] and in test [2] was 0% throughout.

As to `N#Cc1cc(/C=C/C(c2cc(Cl)cc(Cl)c2)C(F)(F)F)ccc1-n1cnc([N+](=O)[O-])n1` (centres unmarked) [DC37], the mortality at 50 µg/cm2 in test [1] and in test [2] was 50 to 100% throughout.

As to `N#Cc1cc(/C=C/C(c2cc(Cl)cc(Cl)c2)C(F)(F)F)ccc1-n1cnc(N)n1` (centres unmarked) [DC38], the mortality at 50 µg/cm2 in test [1] and in test [2] was 50 to 100% throughout.

For `CC(=O)Nc1ncn(-c2ccc(/C=C/C(c3cc(Cl)cc(Cl)c3)C(F)(F)F)cc2C#N)n1` (centres unmarked) [DC39], the mortality at 50 µg/cm2 in test [1] and in test [2] was 50 to 100% each time.

As to `N#Cc1cc(/C=C/C(c2cc(Cl)c(Cl)c(Cl)c2)C(F)(F)F)ccc1-n1cnc([N+](=O)[O-])n1` (centres unmarked) [DC40, (E)-2-(3-nitro-1H-1,2,4-triazol-1-yl)-5-(4,4,4-trifluoro-3-(3,4,5-trichlorophenyl)but-1-en-1-yl)benzonitrile], the mortality at 50 µg/cm2 in test [1] and in test [2] was 50 to 100% each time.

Consider `N#Cc1cc(/C=C/C(c2cc(Cl)c(Cl)c(Cl)c2)C(F)(F)F)ccc1-n1cnc(N)n1` (centres unmarked) [DC41, (E)-2-(3-amino-1H-1,2,4-triazol-1-yl)-5-(4,4,4-trifluoro-3-(3,4,5-trichlorophenyl)but-1-en-1-yl)benzonitrile], for which the mortality at 50 µg/cm2 in test [1] and in test [2] was 50 to 100% in each case.

Regarding `N#Cc1cc(/C=C/C(c2cc(Cl)c(Cl)c(Cl)c2)C(F)(F)F)ccc1-n1cnc(N(C(=O)C2CC2)C(=O)C2CC2)n1` (centres unmarked) [DC42, (E)-N-(1-(2-cyano-4-(4,4,4-trifluoro-3-(3,4,5-trichlorophenyl)but-1-en-1-yl)phenyl)-1H-1,2,4-triazol-3-yl)-N-(cyclopropanecarbonyl)cyclopropanecarboxamide], the mortality at 50 µg/cm2 in test [1] and in test [2] was 50 to 100% each time.

With `N#Cc1cc(/C=C/C(c2cc(Cl)c(Cl)c(Cl)c2)C(F)(F)F)ccc1-n1cnc(NC(=O)C2CC2)n1` (centres unmarked) [DC43, (E)-N-(1-(2-cyano-4-(4,4,4-trifluoro-3-(3,4,5-trichlorophenyl)but-1-en-1-yl)phenyl)-1H-1,2,4-triazol-3-yl)cyclopropanecarboxamide], the mortality at 50 µg/cm2 in test [1] and in test [2] was 50 to 100% throughout.

As to `Cc1cc(/C=C/C(c2cc(Cl)cc(Cl)c2)C(F)(F)F)cc(C#N)c1-n1cncn1` (centres unmarked) [DC44], the mortality at 50 µg/cm2 in test [1] and in test [2] was 50 to 100% in each case.

Regarding `Cc1cc(/C=C/C(c2cc(Cl)c(Cl)c(Cl)c2)C(F)(F)F)cc(C#N)c1-n1cncn1` (centres unmarked) [DC45], the mortality at 50 µg/cm2 in test [1] and in test [2] was 50 to 100% in each case.

As to `N#Cc1cc(/C=C\C(c2cc(Cl)c(F)c(Cl)c2)C(F)(F)F)ccc1-n1cncn1` (centres unmarked) [DC46], the mortality at 50 µg/cm2 in test [1] and in test [2] was 50 to 100% in each case.

`FC(F)(F)C(/C=C/c1ccc(-n2cncn2)c(Br)c1)c1cc(Cl)cc(Cl)c1` (centres unmarked) [DC47]: the mortality at 50 µg/cm2 in test [1] and in test [2] was 50 to 100% in each case.

As to `Fc1cc(/C=C/C(c2cc(Cl)cc(Cl)c2)C(F)(F)F)ccc1-n1cncn1` (centres unmarked) [DC48], the mortality at 50 µg/cm2 in test [1] and in test [2] was 50 to 100% throughout.

As to `FC(F)(F)C(/C=C/c1ccc(-n2cncn2)c(Cl)c1)c1cc(Cl)c(Cl)c(Cl)c1` (centres unmarked) [DC49], the mortality at 50 µg/cm2 in test [1] and in test [2] was 50 to 100% each time.

Consider `FC(F)(F)C(/C=C/c1ccc(-n2cncn2)c(Cl)c1)c1cc(Cl)cc(Cl)c1` (centres unmarked) [DC50], for which the mortality at 50 µg/cm2 in test [1] and in test [2] was 50 to 100% throughout.

For the compound `FC(F)(F)c1cc(/C=C/C(c2cc(Cl)cc(Cl)c2)C(F)(F)F)ccc1-n1cncn1` (centres unmarked) [DC51], the mortality at 50 µg/cm2 in test [1] and in test [2] was 50 to 100% in each case.

As for `O=Cc1cc(/C=C/C(c2cc(Cl)cc(Cl)c2)C(F)(F)F)ccc1-n1cncn1` (centres unmarked) [DC52, (E)-5-(3-(3,5-dichlorophenyl)-4,4,4-trifluorobut-1-en-1-yl)-2-(1H-1,2,4-triazol-1-yl)benzaldehyde], the mortality at 50 µg/cm2 in test [1] and in test [2] was 0% in each case.

`OCc1cc(/C=C/C(c2cc(Cl)cc(Cl)c2)C(F)(F)F)ccc1-n1cncn1` (centres unmarked) [DC53]: the values for the mortality at 50 µg/cm2 in test [1] and in test [2] were 50 to 100% and 0%, respectively.

Regarding `O=[N+]([O-])c1cc(/C=C/C(c2cc(Cl)cc(Cl)c2)C(F)(F)F)ccc1-n1cncn1` (centres unmarked) [DC54], the mortality at 50 µg/cm2 in test [1] and in test [2] was 0% in each case.

Take `Nc1cc(/C=C/C(c2cc(Cl)cc(Cl)c2)C(F)(F)F)ccc1-n1cncn1` (centres unmarked) [DC55]: the mortality at 50 µg/cm2 in test [1] and in test [2] was 0% throughout.

As to `CC(=O)Nc1cc(/C=C/C(c2cc(Cl)cc(Cl)c2)C(F)(F)F)ccc1-n1cncn1` (centres unmarked) [DC56], the mortality at 50 µg/cm2 in test [1] and in test [2] was 0% in each case.

Regarding `CNc1cc(/C=C/C(c2cc(Cl)cc(Cl)c2)C(F)(F)F)ccc1-n1cncn1` (centres unmarked) [DC57, (E)-5-(3-(3,5-dichlorophenyl)-4,4,4-trifluorobut-1-en-1-yl)-N-methyl-2-(1H-1,2,4-triazol-1-yl)aniline], the mortality at 50 µg/cm2 in test [1] and in test [2] was 50 to 100% throughout.

Regarding `NC(=O)c1cc(/C=C/C(c2cc(Cl)cc(Cl)c2)C(F)(F)F)ccc1-n1cncn1` (centres unmarked) [DC58], the mortality at 50 µg/cm2 in test [1] and in test [2] was 0% each time.

With `N/C(=N\O)c1cc(/C=C/C(c2cc(Cl)cc(Cl)c2)C(F)(F)F)ccc1-n1cncn1` (centres unmarked) [DC59, (Z)-5-((E)-3-(3,5-dichlorophenyl)-4,4,4-trifluorobut-1-en-1-yl)-N′-hydroxy-2-(1H-1,2,4-triazol-1-yl)benzimidamide], the mortality at 50 µg/cm2 in test [1] and in test [2] was 0% each time.

Consider `CCOC(=O)c1cc(/C=C/C(c2cc(Cl)cc(Cl)c2)C(F)(F)F)ccc1-n1cncn1` (centres unmarked) [DC60], for which the mortality at 50 µg/cm2 in test [1] and in test [2] was 50 to 100% in each case.

As to `O=C(O)c1cc(/C=C/C(c2cc(Cl)cc(Cl)c2)C(F)(F)F)ccc1-n1cncn1` (centres unmarked) [DC61, (E)-5-(3-(3,5-dichlorophenyl)-4,4,4-trifluorobut-1-en-1-yl)-2-(1H-1,2,4-triazol-1-yl)benzoic acid], the mortality at 50 µg/cm2 in test [1] and in test [2] was 0% throughout.

Consider `Cc1cc(/C=C/C(c2cc(Cl)cc(Cl)c2)C(F)(F)F)ccc1-n1cncn1` (centres unmarked) [DC62], for which the mortality at 50 µg/cm2 in test [1] and in test [2] was 50 to 100% in each case.

For `Cc1cc(/C=C/C(c2cc(Cl)c(Cl)c(Cl)c2)C(F)(F)F)ccc1-n1cncn1` (centres unmarked) [DC63], the mortality at 50 µg/cm2 in test [1] and in test [2] was 50 to 100% throughout.

In the case of `FC(F)(F)C(/C=C/c1ccc(-n2cncn2)c(-c2ccncc2)c1)c1cc(Cl)cc(Cl)c1` (centres unmarked) [DC64], the mortality at 50 µg/cm2 in test [1] and in test [2] was 0% each time.

On to `Cc1cc(-n2cncn2)ccc1/C=C/C(c1cc(Cl)cc(Cl)c1)C(F)(F)F` (centres unmarked) [DC65], for which the figures for the mortality at 50 µg/cm2 in test [1] and in test [2] were 50 to 100% and 0%, respectively.

With `FC(F)(F)C(/C=C/c1ccc(-n2cncn2)cc1Cl)c1cc(Cl)c(Cl)c(Cl)c1` (centres unmarked) [DC66], the mortality at 50 µg/cm2 in test [1] and in test [2] was 50 to 100% each time.

`FC(F)(F)C(/C=C/c1ccc(-n2cncn2)cc1Cl)c1cc(Cl)cc(Cl)c1` (centres unmarked) [DC67]: the mortality at 50 µg/cm2 in test [1] and in test [2] was 50 to 100% throughout.

Values taken from patent US9615576B2, “Pesticidal compositions and processes related thereto” (Dow AgroSciences LLC, priority 2011, dated 2017).
